Reference: patent US12110503B2, “Method for differentiation of ocular cells and use thereof” (FUJIFILM Cellular Dynamics, Inc., priority 2018, dated 2024)

Test system: anterior neuroectoderm cells
Test: Retinal differentiation with removal of the BMP inhibitor (RD1 then RD2)
Assay type: cell-based, human
Conditions: RD1 with LDN193189 about 2 days, then RD2 without
Protocol: In some aspects, the cells may be first differentiated in the presence of a BMP inhibitor, such as LDN1913189, for a period of time before differentiation in the absence of a BMP inhibitor. First, the anterior neuroectoderm cells are cultured in RD1 comprising a BMP pathway inhibitor, such as LDN193189, for about 1-3 days, such as 2 days. […] The second step may be for about 5-10 days, such as about 7 days, to continue differentiating the anterior neuroectoderm cells. […] VSX2 is the earliest specific marker of neural RPC within the optic vesicle and cup (Rowan, et al., 2004). VSX2^+ retinal progenitors can give rise to all cell types of the neural retina: cones, rods, ganglion cells, amacrine cells, bipolar cells, horizontal cells and Muller glia.
The cells were then cultured in Retinal Differentiation Medium 1 (RD1) for about one to four days, particularly about two days. Briefly, the RD1 (Table 1) comprised DMEM and F12 at about a 1:1 ratio, knockout serum replacement, MEM NEAA, sodium pyruvate, N-2 supplement, B-27 supplement, and ascorbic acid. In addition, the RD1 comprised a WNT pathway inhibitor (e.g., CKI-7), a BMP pathway inhibitor (e.g., LDN193189), a TGFβ pathway inhibitor (e.g., SB431542), and a MEK inhibitor (e.g., PD325901), and IGF-1. […]

Cl.c1ccc2c(-c3cnn4cc(-c5ccc(N6CCNCC6)cc5)cnc34)ccnc2c1 [LDN193189, 4-(6-(4-(piperazin-1-yl)phenyl)pyrazolo[1,5-a]pyrimidin-3-yl)quinoline hydrochloride]
VSX2 expression after removal of the BMP inhibitor: increase expression of VSX2
